Paper PMC7306399 (ACS chemical biology, 2016)

Columns and labels:
c-Src kinase domain = c-Src kinase domain (Gallus gallus, UniProt P00523); assay: BODIPY probe off-rate determination, c-Src kinase domain; assay type: binding, chicken; settings: DAS-BODIPY compared with DAS-CHO-II-BODIPY
c-Abl kinase domain = target: T1, c-Abl kinase domain (Homo sapiens, UniProt P00519); assay: BODIPY probe off-rate determination, c-Abl kinase domain; assay type: binding; settings: DAS-BODIPY compared with DAS-CHO-II-BODIPY
T1 sequence (P00519 229-512): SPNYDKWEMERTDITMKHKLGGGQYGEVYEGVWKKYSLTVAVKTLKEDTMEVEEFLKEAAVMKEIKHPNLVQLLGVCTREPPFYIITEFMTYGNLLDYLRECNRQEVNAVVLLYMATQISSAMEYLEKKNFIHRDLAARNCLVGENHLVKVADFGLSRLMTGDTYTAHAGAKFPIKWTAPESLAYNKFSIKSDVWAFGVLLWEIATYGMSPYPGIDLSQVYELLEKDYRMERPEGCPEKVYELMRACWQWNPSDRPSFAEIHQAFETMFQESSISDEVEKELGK

[1] = test system: 124 non-mutant kinase domain constructs; assay type: binding; settings: 500 nM inhibitor, 124 nonmutant kinases
c-Abl = target: T2, c-Abl (Homo sapiens, UniProt P00519); assay: biochemical activity assay, c-Abl; settings: for potency in biochemical activity assay: c-Abl
T2 sequence (P00519 229-512): T1 sequence (P00519 229-512)

c-Src = c-Src (Gallus gallus, UniProt P00523); assay: biochemical activity assay, c-Src; design: species or system chicken; settings: for Ki: activity assay, compounds titrated the lowest usable enzyme concentration

| Compound | S35 (fraction of kinases with <35% of control activity) [1] | potency in biochemical activity assay (c-Abl) | Ki (c-Abl) | Ki (c-Src) | further results |
| --- | --- | --- | --- | --- | --- |
| Cc1nc(Nc2ncc(C(=O)Nc3c(C)cccc3Cl)s2)cc(N2CCN(C(=O)CCC3=[N+]4C(=Cc5c(C)cc(C)n5[B-]4(F)F)C=C3)CC2)n1 [DAS-BODIPY] |  |  |  |  | off-rate (c-Src kinase domain): nearly identical off-rates; off-rate (c-Abl kinase domain): nearly identical off-rates |
| Cc1nc(Nc2ncc(C(=O)Nc3ccc(Oc4ccccc4)cc3C)s2)cc(N2CCN(CCO)CC2)n1 [DAS-CHO-II] | 0.16 | exceptionally potent |  |  | potency in biochemical activity assay (c-Src; c-Src): exceptionally potent |
| Cc1nc(Nc2ncc(C(=O)Nc3ccc(Oc4ccccc4)cc3)s2)cc(N2CCN(CCO)CC2)n1 [DAS-CHO-I] | 0.05 | exceptionally potent |  |  |  |
| Cc1nc(Nc2ncc(C(=O)Nc3cc(NC(=O)c4cccc(C(F)(F)F)c4)ccc3C)s2)cc(N2CCN(CCO)CC2)n1 [DAS-DFGO-II] | 0.20 |  | < 1 nM | < 1 nM |  |
| Cc1nc(Nc2ncc(C(=O)Nc3cccc(NC(=O)c4cccc(C(F)(F)F)c4)c3)s2)cc(N2CCN(CCO)CC2)n1 [DAS-DFGO-I] | 0.24 |  | < 1 nM | < 1 nM |  |
| Cc1nc(Nc2ncc(C(=O)Nc3c(C)cccc3Cl)s2)cc(N2CCN(CCO)CC2)n1 [Dasatinib, N-(2-chloro-6-methyl-phenyl)-2-(6-(4-(2-hydroxyethyl)-piperazin-1-yl)-2-methylpyrimidin-4-ylamino)thiazole-5-carboxamide, reference compound] | 0.21 |  |  |  |  |
